The values that follow come from patent publication US8518874B2, “HCV inhibitors” (Virobay, Inc., priority 2005, dated 2013).

Like-named read-outs stand apart in the source and are kept apart here. Where only a bound is given, the exact number is not on record here.

This test has as its system HCV replication (HCV replicon RNA in Huh7/Clone A cells). Briefly: HCV Replicon Assay. Conditions: Hepatitis C virus, read-out: IC50 for inhibition of HCV replication. Type of test: cell-based. The source says:
The HCV replicon assay is a cell-culture system that mimics in vivo HCV replication and provides a system to study HCV replication in vitro. It was created by transfecting cloned viral RNA derived from a consensus HCV genomic sequence into human Huh7 hepatoma cells that are semi-permissive for viral RNA production (Lohmann V., Korner F., Koch J.-O., Herian U., Theilmann L. and Bartenschlager R. (1999). Replication of subgenomic Hepatitis C virus RNAs in a hepatoma cell line. Science 285, 110-113 and Blight K. J., Kolykhalov A. A. and Rice C. M. (2000). Efficient initiation of HCV RNA Replication in cell culture. Science 290, […]). These transfected cell lines contain a subgenomic HCV RNA genome that includes (1) the HCV 5′NTR fused to 12 amino acids of the capsid coding region, (2) the neomycin phosphotransferase gene (Neo) as a selectable marker, (3) the internal ribosome entry site (IRES) from encephalomyocarditis virus (EMCV) that directs translation of HCV non-structural proteins (variously NS2 or NS3 to NS5B), and (4) the 3′ NTR. Replicon-containing cells autonomously and persistently replicate HCV RNA that can be measured quantitatively by real-time qPCR. Therefore, the replicon system facilitates quantitative assessment of anti-viral activity by monitoring changes in HCV RNA replication in a cell-based assay.
HCV replicon-containing cells (Huh7/Clone A) were routinely maintained in Clone A growth medium (DMEM medium [Invitrogen], supplemented with 10% Fetal Bovine Serum, 1% Non Essential Amino Acids and 1 g/L G418). Test compounds were dissolved in dimethyl sulfoxide (DMSO) to make 200× stock solutions for all doses prior to treatment.
For the HCV replicon assay, Huh7/Clone A cells were trypsinized from culture flasks, seeded in 1 ml of Clone A growth medium without G418 at 4×10^4 cells per well in 24-well plates and incubated at 37° C. in a humidified CO2 (5%) incubator overnight. Following overnight incubation, compound solutions were added into wells in the same volume (5 μl of 200× compound stock per well) to give a final DMSO concentration of 0.5%. Three wells on each plate supplemented with 5 μl of DMSO served as untreated controls. For IC50 determinations, compounds were tested at 7 serial dilutions in triplicates from the starting stock solutions. The plates were incubated at 37° C. for 48 hours. After incubation, cells were harvested, transferred to 96-well plates, and subjected to total RNA extraction using the RNA Isolation Kit (RNeasy 96, Qiagen) according to the protocol described by the manufacture's RNeasy 96 Handbook (Qiagen).
Total RNA eluted in 130 μl of RNase-free dH2O was quantitated by the RiboGreen Assay according to the supplier's protocol (Molecular Probe). Briefly, 5 μl of RNA samples were aliquoted in duplicate to a 96-well black microplate and a 96-well TaqMan Optical plate. RNA samples in the black microplate were mixed with 95 μl of diluted RiboGreen:reagent (1:250 dilution in TE buffer) and sample fluorescence was measured using a fluorescence microplate reader at standard fluorescein wavelengths (excitation ˜480 nm, emission ˜520 nm). Ribosomal RNA (Molecular Probe) was used as standard.
TaqMan quantitative PCR (RT-qPCR) was used to quantitate the amount of HCV replicon RNA in each sample. The RT-qPCR reactions were performed in 25 μl on an ABI PRISM 7900 HT Sequence Detection System (Applied Biosystems). The reaction mixture contained 5 μl of total RNA (10-100 ng), 1×TaqMan Buffer A (Applied Biosystems), 5.5 mM MgCl2, 1.2 mM dNTP mix, 0.625 U of AmpliTaq Gold (Applied Biosystems), 5 U of MMLV reverse transcriptase (Promega), 5 U of rRNasin (Promega), 300 nM each of the forward and reverse primers, and 100 nM TaqMan MGB probe. […]

[1] abbreviates: Huh-7, HCV replicon-containing Huh7/Clone A cells, 48 hours incubation, replicon RNA by RT-qPCR normalized to total RNA.

Take `CCC[C@H](NC(=O)[C@@H]1C[C@@H](Oc2ccc(Cl)cn2)CN1C(=O)[C@@H](NC(=O)NC(C)(C)C)C(C)(C)C)C(=O)C(=O)NC1CC1` [Compound 8, 1-[2-(3-tert-butylureido)-3,3-dimethyl-butyryl]-4-(5-chloro-pyridin-2-yloxy)-pyrrolidine-2-carboxylic acid (1-cyclopropylaminooxalyl-butyl)-amide]: the IC50 under setting [1] was less than 10 µM.

On to `CCC[C@H](NC(=O)[C@@H]1C[C@@H](Oc2ccc(Cl)cn2)CN1C(=O)[C@@H](NC(=O)OC(C)(C)C)C(C)(C)C)C(=O)C(=O)NC1CC1` [Compound 6, {1S-[4R-(5-chloropyridin-2-yloxy)-2S-(1S-cyclopropylaminooxalylbutyl-carbamoyl)-pyrrolidine-1-carbonyl]-2,2-dimethyl-propyl}-carbamic acid tent-butyl ester], for which the IC50 (Huh-7, 48 h) is less than 50 µM.

Regarding `COc1ccc2c(OC3C[C@@H](C(=O)N[C@@H](CC4CC4)C(=O)C(=O)NC4CC4)N(C(=O)[C@@H](NC(=O)NC(C)(C)C)C(C)(C)C)C3)nccc2c1` (stereo partly drawn) [Compound 10, 1-[2S-(3-tert-Butyl-ureido)-3,3-dimethyl-butyryl]-4R-(6-methoxy-isoquinolin-1-yloxy)-pyrrolidine-2S-carboxylic acid (2-cyclopropylcarbamoyl-1S-cyclopropylmethyl-2-oxo-ethyl)-amide], the IC50 under setting [1] is less than 10 µM.

On to `CCOc1ccc2c(OC3C[C@@H](C(=O)N[C@@H](CC4CC4)C(=O)C(=O)NC4CC4)N(C(=O)[C@@H](NC(=O)NC(C)(C)C)C(C)(C)C)C3)nccc2c1` (stereo partly drawn) [Compound 11, 1-[2S-(3-tert-Butyl-ureido)-3,3-dimethyl-butyryl]-4R-(6-ethoxy-isoquinolin-1-yloxy)-pyrrolidine-2-carboxylic acid (2-cyclopropylcarbamoyl-1S-cyclopropylmethyl-2S-oxo-ethyl)-amide], for which the IC50 under setting [1] was less than 10 µM.

For `CCCC[C@H](NC(=O)[C@@H]1CC(Oc2nccc3cc(OC)ccc23)CN1C(=O)[C@@H](NC(=O)NC(C)(C)C)C(C)(C)C)C(=O)C(=O)NC1CC1` (stereo partly drawn) [Compound 13, 1-[2S-(3-tert-Butyl-ureido)-3,3-dimethyl-butyryl]-4R-(6-methoxy-isoquinolin-1-yloxy)-pyrrolidine-2S-carboxylic acid (1S-cyclopropylaminooxalyl-pentyl)-amide], the IC50 under setting [1] is less than 10 µM.

With `CCC[C@H](NC(=O)[C@@H]1CC(Oc2nccc3cc(OCC)ccc23)CN1C(=O)[C@@H](NC(=O)NC(C)(C)C)C(C)(C)C)C(=O)C(=O)NC1CC1` (stereo partly drawn) [Compound 12, 1-[2S-(3-tert-Butyl-ureido)-3,3-dimethyl-butyryl]-4R-(6-ethoxy-isoquinolin-1-yloxy)-pyrrolidine-2S-carboxylic acid (1S-cyclopropylaminooxalyl-butyl)-amide], the IC50 under setting [1] was less than 10 µM.

In the case of `CC(C)(C)OC(=O)N[C@H](C(=O)N1C[C@H](Oc2ccc(Cl)cn2)C[C@H]1C(=O)N[C@@H](CC1CCC1)C(=O)C(=O)NC1CC1)C(C)(C)C` [Compound 7, {1S-[4R-(5-chloropyridin-2-yloxy)-2S-(1S-cyclobutylmethyl-2-cyclopropylcarbamoyl-2-oxo-ethylcarbamoyl)-pyrrolidine-1-carbonyl]-2,2-dimethyl-propyl}-carbamic acid tert-butyl ester], the IC50 (Huh-7, 48 h) was less than 50 µM.

For `CC(C)(C)NC(=O)N[C@H](C(=O)N1CC(Oc2ccc(Cl)cn2)C[C@H]1C(=O)N[C@@H](CC1CCC1)C(=O)C(=O)NC1CC1)C(C)(C)C` (stereo partly drawn) [Compound 3, 1-[2S-(3-tert-butylureido)-3,3-dimethylbutyryl]-4R-(5-chloropyridin-2-yloxy)-pyrrolidine-2S-carboxylic acid (1S-cyclobutylmethyl-2-cyclopropylcarbamoyl-2-oxoethyl)-amide], under “Huh-7, 48 h”, the IC50 is less than 50 µM.
